From patent US20040146474A1, “Method for softening lines and relaxing the skin with adenosine and adenosine analogues” (L'OREAL, priority 2002, published 2004)

Test system: equivalent dermis model constituted by a matrix of collagen seeded with normal human fibroblasts
Assay: Dermo-relaxant effect: spontaneous contraction of equivalent dermis (collagen matrix seeded with fibroblasts)
Type: cell-based
Settings: adenosine 0.01%
Source text: The principle of this test is to study the relaxing effect of adenosine on an equivalent dermis model constituted by a matrix of collagen seeded with normal human fibroblasts.
These conditions were intended to imitate in vitro the dermal contractile phenomena which occur during facial expressions. Under these conditions, cells spontaneously express tensile forces which induce retraction of the collagen gel. […] Measuring that surface area allows the relaxation effects of substances that have been brought into contact with the equivalent dermis to be determined.
Two series of 3 attached equivalent dermises containing normal human fibroblasts were prepared: a control series with no treatment, and a series treated with adenosine (0.01%). The experiment was carried out three times.
The skin equivalents were prepared as described by Asselineau et al, Exp. Cell. Res., 1985, 159, 536-539; Models in Dermatology, 1987, vol 3, pp 1-7, in the following proportions:
The treated equivalent dermis differed from the control equivalent dermis in that 0.01% of adenosine had been added.
The collagen used was type I collagen (commercial solution), but it was also possible to use type III or IV collagen. It was extracted from rat tails or calf skin by acid hydrolysis and stored in an acidic medium at +4° C.; it polymerizes naturally by heating to 37° C. and by reducing the acidity. The collagen had been dialyzed against successive baths of water+acetic acid.
The following protocol was employed: the following were introduced into a sterile tube: 1.76×MEM medium in the presence of additives (glutamine 1%, non essential amino acids 1%, sodium pyruvate 1%, fungizone 1% and penicillin/streptomycin 1%), foetal calf serum, 0.1 N sodium hydroxide NaOH. Fibroblasts isolated from human skin explants were then added in a concentration of 1.4×10^5 cells per ml of culture medium.
A 1/1000 vol/vol mixture of collagen in acetic acid was then slowly added by pouring it down the tube wall so that the appearance of a whitish cloud was observed.
The ensemble was then carefully mixed and distributed into the wells of a 12-well culture plate (Costar, reference 3512) in an amount of 0.5 ml of mixture per cm^2. The culture plate was placed in an incubator at 37° C. with 5% CO2.
Once formed after polymerizing the collagen, the equivalent dermises were left adhering to the culture support for 3 days then detached from the support so that contraction could commence. […]
To this end, a digital image was acquired for each treated or untreated equivalent dermis using a camera (CCD Camera—Iris Sony DXC—107P) and the surface area was then calculated for each image using an image analysis system (Zeiss Axiovision 3.0). […]

Nc1ncnc2c1ncn2[C@@H]1O[C@H](CO)[C@@H](O)[C@H]1O [Adenosine]
relaxing effect on equivalent dermis (conclusion in words): causes less contraction in an equivalent dermis
reduction of contraction percentage compared with the control (eight hours after detachment from support): 10.5%
reduction of contraction percentage compared with the control (four hours after detachment from support): 6.4%
reduction of contraction percentage compared with the control (twenty-four hours after detachment from support): 12.7%
